For the assay, the target named is T1, LATS1 Kinase-NanoLuc fusion in HEK-293 cells (Homo sapiens, UniProt O95835).
T1 construct: host or cells: HEK-293
T1 sequence (O95835 1-1130): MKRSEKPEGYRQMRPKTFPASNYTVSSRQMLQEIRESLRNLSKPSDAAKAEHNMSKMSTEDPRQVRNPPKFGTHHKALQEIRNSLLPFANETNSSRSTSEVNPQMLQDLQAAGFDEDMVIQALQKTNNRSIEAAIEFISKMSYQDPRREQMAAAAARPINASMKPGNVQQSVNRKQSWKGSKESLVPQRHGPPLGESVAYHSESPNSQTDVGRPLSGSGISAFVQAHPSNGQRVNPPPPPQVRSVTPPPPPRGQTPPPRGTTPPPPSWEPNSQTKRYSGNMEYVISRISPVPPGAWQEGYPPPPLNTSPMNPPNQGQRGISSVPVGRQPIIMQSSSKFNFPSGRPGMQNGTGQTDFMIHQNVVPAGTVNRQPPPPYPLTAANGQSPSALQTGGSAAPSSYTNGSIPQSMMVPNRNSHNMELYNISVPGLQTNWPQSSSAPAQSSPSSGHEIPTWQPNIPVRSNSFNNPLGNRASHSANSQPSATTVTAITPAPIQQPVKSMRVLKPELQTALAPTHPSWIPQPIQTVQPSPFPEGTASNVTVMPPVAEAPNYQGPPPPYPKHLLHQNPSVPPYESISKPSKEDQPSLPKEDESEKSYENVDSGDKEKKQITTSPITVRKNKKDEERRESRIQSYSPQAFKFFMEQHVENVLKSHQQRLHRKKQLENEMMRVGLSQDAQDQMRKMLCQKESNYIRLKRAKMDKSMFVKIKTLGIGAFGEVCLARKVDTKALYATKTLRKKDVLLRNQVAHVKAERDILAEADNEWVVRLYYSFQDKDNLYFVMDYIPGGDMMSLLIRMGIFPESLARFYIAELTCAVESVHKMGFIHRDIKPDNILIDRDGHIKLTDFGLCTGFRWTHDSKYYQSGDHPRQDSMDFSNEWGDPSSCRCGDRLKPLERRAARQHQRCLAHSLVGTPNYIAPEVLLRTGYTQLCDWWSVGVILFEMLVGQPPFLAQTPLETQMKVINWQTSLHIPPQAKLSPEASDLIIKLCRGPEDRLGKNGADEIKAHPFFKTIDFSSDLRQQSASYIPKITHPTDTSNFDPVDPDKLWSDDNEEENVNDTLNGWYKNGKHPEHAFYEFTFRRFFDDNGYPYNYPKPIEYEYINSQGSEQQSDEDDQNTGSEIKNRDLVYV
The experiment in a line: NanoBRET target engagement assay in transfected HEK-293 cells, LATS1. The class given is cell-based. The settings on record: cellular. Summed up:
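HEK-293 cells transiently transfected with kinase-NanoLuc fusion plasmid for 22-24 h, then incubated with compound and NanoBRET tracer for 1 hour at 37° C. After substrate plus extracellular NanoLuc inhibitor addition, 460 and 600 nm emissions read; no-tracer-corrected BRET ratio used to derive IC50 values.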

The term IC50 denotes the point on the concentration scale where inhibition reaches its midpoint. High values mean a need for much substance, low ones inhibition by little substance. Regarding `Cc1cc(-c2ccnc3[nH]cc(C#N)c23)ccc1[C@@]1(O)[C@H](C)CN(C2CCS(=O)(=O)CC2)C[C@@H]1C` [Compound 2003, 4-(4-((3S,4s,5R)-1-(1,1-dioxidotetrahydro-2H-thiopyran-4-yl)-4-hydroxy-3,5-dimethylpiperidin-4-yl)-3-methylphenyl)-1H-pyrrolo[2,3-b]pyridine-3-carbonitrile], it took 15 nM to reach half-maximal inhibition (IC50). That is a double-digit nanomolar value.
